“Also recorded” adds a separate entry of the source. Read-outs that look alike come from different tables or passages of the source. Residues, ends and D or L forms follow the SMILES beside them.
Assays:
Hp0231APHA = biological target: T1, Hp0231APHA (Helicobacter pylori, UniProt O25017, C159A/C162A); experiment: Microscale thermophoresis (MST) binding of inhibitory peptides to Hp0231APHA (inactive form)
T1 sequence (O25017 1-265 C159A/C162A): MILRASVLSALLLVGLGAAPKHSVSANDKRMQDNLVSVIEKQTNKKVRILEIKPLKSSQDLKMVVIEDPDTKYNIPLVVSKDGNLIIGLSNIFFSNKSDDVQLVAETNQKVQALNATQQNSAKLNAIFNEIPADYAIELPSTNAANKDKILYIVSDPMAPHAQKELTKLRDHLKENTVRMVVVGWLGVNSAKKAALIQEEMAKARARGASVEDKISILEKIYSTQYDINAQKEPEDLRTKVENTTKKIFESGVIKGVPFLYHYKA

Hp0231 [1] = biological target: T2, Hp0231 (Helicobacter pylori, UniProt O25017); experiment: Peptide inhibitory activity assay (time-resolved Eu3+ fluorescence peptide oxidation assay); format: biochemical; conditions: 160 nM Hp0231, […] GSSG, 8 µM substrate S1 or S2, pH 5.5
T2 sequence (O25017 entry or part of it): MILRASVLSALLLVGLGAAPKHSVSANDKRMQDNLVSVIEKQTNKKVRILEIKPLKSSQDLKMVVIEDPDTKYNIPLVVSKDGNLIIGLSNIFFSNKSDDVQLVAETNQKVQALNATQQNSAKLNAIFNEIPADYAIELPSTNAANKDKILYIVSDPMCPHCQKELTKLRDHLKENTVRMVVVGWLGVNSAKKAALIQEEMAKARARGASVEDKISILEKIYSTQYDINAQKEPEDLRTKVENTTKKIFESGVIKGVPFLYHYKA
Method: The peptide oxidation assay was performed as described previously ([Vivian et al., 2009]; [Kurth et al., 2014]) with slight modification. Briefly, peptide substrates (S1—[…]; S2—[…]) with DOTA (1,4,7,10-tetraazacycclododecane-1,4,7,10-tetraacetic acid) coupled at the N-terminus, and a methylcoumarin amide coupled to the Ɛ-amino group of the C-terminal lysine, were custom synthesized by Eurogentec. The lyophilized peptides were resuspended in 100 mM imidazole (pH 6.0) to a concentration of 2 mM. Freshly prepared 100 mM europium trifluoromethanesulfonate (Eu^3+) solution was added to each peptide at a final concentration of 4 mM and the mixtures incubated for 5 min at room temperature to permit Eu^3+ chelation. Eu^3+ was complexed with DOTA in order to facilitate observation of the oxidation rate of cysteine residues in the substrate peptide, leading to the formation of a disulfide bond. This process brings the methylcoumarin antenna into close contact with the DOTA-Eu^3+ fluorophore, resulting in an increase in Eu^3+ fluorescence. Thus, fluorescence could be used to monitor the capacity of Hp0231 or Hp0231APHA to catalyze disulfide bond formation.
Assays were conducted using an Infinite® M Nano + plate reader (Tecan) with an excitation wavelength of 340 nm and emission wavelength 615 nm. There was a 150 µs delay before reading and time-resolved fluorescence was measured over a period of 100 µs. The assay was performed in white 384-well plates (Perkin Elmer, OptiPlate-384). Each well contained 50 μL, which included the reaction buffer consisting of 50 mM MES, 50 mM NaCl, 2 mM EDTA (pH 5.5), 160 nM protein (either Hp0231 or Hp0231APHA), 1.6 mM GSSG (oxidized glutathione) and 8 µM substrate peptide which was added last to initiate the reaction. Three control reactions were included in each experiment: 1) reaction buffer, GSSG and a protein; 2) reaction buffer and substrate peptide; 3) reaction buffer, substrate peptide and GSSG. Measurements were made for three replicate samples and mean values are presented, with the standard error of the mean indicated by error bars. […]

Hp0231 [2] = biological target: T2, Hp0231; experiment: biochemical
Method: 2.3.7 Assessment of interactions between inhibitory peptides and Hp0231 or Hp0231APHA using microscale thermophoresis
The purified Hp0231 and Hp0231APHA proteins were suspended in HEPES buffer (20 mM HEPES, 150 mM NaCl, 0.05% (v/v) TWEEN 20, pH 7.4). Protein concentrations were determined by absorption measurements at 280 nm, using the extinction coefficients ε280 = 16,055 M^−1 × cm^−1 for Hp0231 and ε280 = 15,930 M^−1 × cm^−1 for Hp0231APHA, calculated using Quest Calculate™ Protein Concentration Calculator (AAT BioQuest, https://www.aatbio.com/tools/calculate-protein-concentration). After adjusting their concentrations to 200 nM, Hp0231 and Hp0231APHA were labeled using a Monolith His-Tag Labeling Kit RED-tris-NTA (NanoTemper Technologies) according to the manufacturer’s instructions. […] To assess binding interactions between the Hp0231/Hp0231APHA proteins and the inhibitory peptides, MST measurements were performed using a NanoTemper ® Monolith NT.115 instrument (NanoTemper Technologies). Samples were prepared according to the manufacturer’s instructions and loaded in Premium coated capillaries (NanoTemper Technologies). Measurements were performed using MO.Control v1.6.1 (NanoTemper Technologies) software. Medium and high MST power were applied at 25°C. The results were analyzed using MO.Affinity Analysis v2.3 (NanoTemper Technologies) and Origin 2019 (OriginLab Corporation). At least three independent measurements were performed for each sample.

E. coli DsbA = system: E. coli DsbA; design: method as in Duprez et al. (2015); conditions: ref Duprez et al. (2015); cited from earlier work
[3] = MST, pseudo-titration mode, 25°C, Hp0231, mean of three experiments ± S.D., NB = not binding
[4] = MST, pseudo-titration mode, 25°C, Hp0231APHA (CPHC to APHA, inactive), NB = not binding
[5] = MST, pseudo-titration mode, 25°C, Hp0231APHA (CPHC to APHA, inactive), NB = not binding, read-out: K D

CC(=O)N[C@@H](Cc1c[nH]cn1)C(=O)N[C@@H](CCC(N)=O)C(=O)N[C@@H](CO)C(=O)N[C@@H](CS)C(=O)N[C@@H](C)C(=O)N[C@@H](CS)C(=O)N[C@@H](CCC(=O)O)C(=O)N[C@@H](CC(C)C)C(N)=O [WAW8] (Ac-HQSCACEL-NH2)
Kd (Hp0231APHA): 1.3 ± 0.2 µM | Inhibition of Hp0231-catalyzed oxidation of substrate peptides (Eu3+ fluorescence increase) (Hp0231 [1]; inhibitory peptide 0.75 mM): the reaction rate was significantly reduced | K D (Hp0231 [2]; [3]): two binding affinities (low and high)

Ac-HQSALYEL-NH2 [WAW6]
K D (Hp0231APHA; [4]): did not bind; also recorded: no binding | Kd (Hp0231APHA; [5]): > 1000 µM | Inhibition of Hp0231-catalyzed oxidation of substrate peptides (Eu3+ fluorescence increase) (Hp0231 [1]; inhibitory peptide 1 mM): did not yield a significant alteration in the fluorescence intensity | Kd (Hp0231 [2]; [3]): > 1000 µM

Ac-HQSCAYEL-NH2 [WAW7]
K D (Hp0231APHA; [4]): no interaction | Kd (Hp0231APHA; [5]): > 1000 µM | Inhibition of Hp0231-catalyzed oxidation of substrate peptides (Eu3+ fluorescence increase) (Hp0231 [1]; inhibitory peptide 1 mM): inhibition of the fluorescence intensity increase | Kd (Hp0231 [2]): 112 ± 21 µM | K D (Hp0231 [2]; [3]): low affinity

PSPFATCDF
Kd (E. coli DsbA): 4 µM

Source: publication PMC10810133, “Exploring the inhibitory potential of in silico-designed small peptides on Helicobacter pylori Hp0231 (DsbK), a periplasmic oxidoreductase involved in disulfide bond formation” (Frontiers in Molecular Biosciences, 2024)
